Laboratory results published in patent US6455507B1, “Benzimidazole derivatives” (SmithKline Beecham Corporation, priority 1997, dated 2002).

Legend:
HCMV strain AD169 = experiment: Human Cytomegalovirus Assay (HCMV DNA hybridization); format: cell-based; settings: HCMV strain AD169 on MRC5 cell monolayers, 5 days incubation, antiviral effect from HCMV DNA by quantitative hybridization
Protocol: HCMV strain AD169 was grown on monolayers of human embryonic lung cells (MRC5 cells) in 96 well plates. After infection of the cells at a ratio of approximately 0.01 infectious virus particles per cell, the compounds to be tested were added to selected wells at six different concentrations, each in triplicate. The same concentrations of compound were also applied to wells containing monolayers of uninfected cells in order to assess compound cytotoxicity. The plates were incubated for 5 days, and the minimum cytotoxic dose was estimated from microscopic examination. The IC50 for antiviral effect was estimated from measurements of HCMV DNA in each well by blotting and quantitative specific DNA hybridization, similar to the method of Gadler (Antimicrob. Agents Chemother. 1983, 24, 370-374).

Compound | melting point | IC50 (HCMV strain AD169; Human betaherpesvirus 5, 120 h) [nM] | IC50 (HCMV strain AD169) [nM]
O[C@H]1[C@H](O)[C@@H](n2c(Br)nc3cc(Cl)c(Cl)cc32)OC[C@@H]1O [Example 57, 2-Bromo-5,6-dichloro-1-beta-L-xylopyranosyl-1H-benzimidazole] | 164 to 165 °C |  | 
OC[C@@H]1OC[C@H](n2c(Br)nc3cc(Cl)c(Cl)cc32)[C@@H](O)[C@H]1O [Example 42, (3S,4R,5R,6S)-2-Bromo-5,6-dichloro-1-(tetrahydro-4,5-dihydroxy-6-(hydroxymethyl)-2H-pyran-3-yl)-1H-benzimidazole] | 207 to 208 °C |  | 
OC[C@@H]1OC[C@H](n2c(NC3CC3)nc3cc(Cl)c(Cl)cc32)[C@@H](O)[C@H]1O [Example 43, (3S,4R,5R,6S)-5,6-Dichloro-2-(cyclopropylamino)-1-(tetrahydro-4,5-dihydroxy-6-(hydroxymethyl)-2H-pyran-3-yl)-1H-benzimidazole] | 164 °C |  | 
CC(=O)O[C@@H]1[C@H](OC(C)=O)[C@H](OC(C)=O)CO[C@H]1n1c(Br)nc2cc(Cl)c(Cl)cc21 [Example 1, 2-Bromo-5,6-dichloro-1-(2,3,4-tri-O-acetyl-beta-D-ribopyranosyl)-1H-benzimidazole] | 100 to 110 °C | 1000 | 
CC(=O)O[C@@H]1[C@H](OC(C)=O)[C@@H](n2c(Br)nc3cc(Cl)c(Cl)cc32)OC[C@@H]1OC(C)=O [Example 4, 2-Bromo-5,6-dichloro-1-(2,3,4-tri-O-acetyl-beta-L-ribopyranosyl)-1H-benzimidazole] | 110 °C |  | 
OC[C@H]1OC[C@@H](n2c(NC3CC3)nc3cc(Cl)c(Cl)cc32)[C@H](O)[C@@H]1O [Example 41, (3R,4S ,5S ,6R)-5,6-Dichloro-2-(cyclopropylamino)-1-(tetrahydro-4,5-dihydroxy-6-(hydroxymethyl)-2H-pyran-3-yl)-1H-benzimidazole] | 244 °C (dec.) |  | 
Cc1cc2nc(Br)n([C@@H]3OC[C@@H](O)[C@@H](O)[C@H]3O)c2cc1Cl [Example 13, 2-Bromo-6-chloro-5-methyl-1-beta-D-ribopyranosyl-1H-benzimidazole] | 170 to 175 °C (dec.) | 6000 | 
OC[C@H]1OC[C@@H](n2c(Br)nc3cc(Cl)c(Cl)cc32)[C@H](O)[C@@H]1O [Example 40, (3R,4S,5S,6R)-2-Bromo-5,6-dichloro-1-(tetrahydro-4,5-dihydroxy-6-(Hydroxymethyl)-2H-pyran-3-yl)-1H-benzimidazole] | 207 to 209 °C |  | 
O[C@@H]1[C@H](O)[C@H](O)CO[C@H]1n1c(Br)nc2cc(Cl)c(Cl)cc21 [Example 2, 2-Bromo-5,6-dichloro-1-beta-D-ribopyranosyl-1H-benzimidazole] | 175 °C (dec.) | 700 | 
OC[C@@H]1OC[C@H](n2c(NC3CC3)nc3cc(Cl)c(Cl)cc32)C[C@H]1O [Example 39, (3R,5R,6S)-5,6-Dichloro-2-(cyclopropylamino)-1-(tetrahydro-5-hydroxy-6-(hydroxymethyl)2H-pyran-3-yl)-1H-benzimidazole] | 98 to 99 °C |  | 
CC(C)Nc1nc2cc(Cl)c(Cl)cc2n1[C@@H]1OC[C@@H](O)[C@@H](O)[C@H]1O [Example 3, 5,6-Dichloro-N-1(1-methylethyl)-1-beta-D-ribopyranosyl-1H-benzimidazole-2-amine] |  |  | 22000
O[C@@H]1CCCC[C@H]1n1c(Br)nc2cc(Cl)c(Cl)cc21 (racemic) [Example 45, (±)-trans-2-(2-Bromo-5,6-dichloro-1H-benzimidazol-1-yl)cyclohexanol] | 201 to 202 °C |  | 
O[C@@H]1CCCC[C@H]1n1c(NC2CC2)nc2cc(Cl)c(Cl)cc21 (racemic) [Example 46, (±)-trans-2-[5,6-Dichloro-2-(cyclopropylamino)-1H-benzimidazol-1-yl]cyclohexanol] | 149 to 151 °C |  | 
2-Bromo-5,6-dichloro/4-fluoro-1-beta-D-ribopyranosyl-1H-benzimidazole [Example 24] |  |  | 900
